The subject of one series is rat mesenteric artery. As to the kind of experiment: Methoxamine‐evoked contraction of rat mesenteric artery. It counts as cell-based. As to conditions: 50 nM blocker pretreatment. As to the method:
Vessels were equilibrated and set to a basal tension of 2 to 2.5 mN. The integrity of the endothelium was assessed by pre‐contracting the vessel with 10 μM methoxamine (an α1‐adrenoceptor agonist), followed by relaxation with 10 μM carbachol (a muscarinic acetylcholine receptor agonist); vessels showing relaxations of greater than 90% were designated as endothelium‐intact. When the endothelium was not required, it was removed by rubbing the intima with a human hair; carbachol‐induced relaxation of less than 10% indicated successful removal. After the test for endothelial integrity, vessels were left for 30 min and then pre‐contracted with 10 μM methoxamine. This was followed by construction of a cumulative concentration–relaxation curve to VSN16R (10 nM–1 μM). […] Most experiments were performed in matched vessels; effects of blockers or endothelial removal were compared with the control responses obtained in separate vessels of the same rats. All relaxant responses are expressed as percentage relaxation of the tone induced by methoxamine. Values are given as mean ± SEM. Statistical comparisons of concentration‐dependent responses were made by two‐way ANOVA using Prism 4 (GraphPad Software, Inc, San Diego, CA, USA).

Series [1] has as its system spastic ABH mice with EAE. As to the kind of experiment: Spasticity: resistance to hindlimb flexion against a strain gauge.
Series [2] has as its system ABH mice. As to the kind of experiment: Temperature testing (hypothermia). As to conditions: for Temperature loss: 10 mg·kg^−1 i.v. It counts as in vivo, mouse. As to the method:
These recordings were assessed 20 min following administration of compounds. Results are expressed as mean ± SEM, and were analysed by Student's t‐test or a one‐way ANOVA with Bonferroni post hoc test using Sigma/StatV3/Sigmpaplot V9 or V11 software (Pryce et al., 2014).

For series [3], the system named is ABH mice. Nature of the series: Open‐field activity monitoring (hypomotility). Type of series: in vivo, mouse. As for the experimental part:
Motor activity was assessed using 27.9 × 27.9 cm open field activity monitor chambers and computer software (Med Associates Inc, St. Albans, VT, USA.). This was typically performed in a darkened room. Recordings were initiated once the mouse entered the chamber and continued for 5 min. These chambers, allowing four simultaneous recordings of individual mice and were fitted with infrared beams that could detect movement in the X, Y planes. The total distance travelled (cm) was recorded. Results are expressed as mean ± SEM. These were analysed by Student's paired t‐test or a one‐way ANOVA with Bonferroni post hoc test, using SigmaStat V3/Sigmaplot V9 or V11 software (Systat Ltd Hounslow, UK. Al‐Izki et al., 2012).

The test system of another series is mouse vas deferens. Nature of the series: Electrically‐evoked contraction of the mouse vas deferens. As to conditions: Mus musculus; read-out: EC50, inhibition of electrically‐evoked contraction. It counts as cell-based. As for the experimental part: Vasa deferentia were obtained from outbred MF‐1 mice and mounted vertically in a 4 mL organ bath at an initial tension of 0.5 g. The baths contained Mg^2+‐free Krebs solution (NaCl 118.2 mM, KCl 4.75 mM, KH2PO4 1.19 mM, NaHCO3 25.0 mM, glucose 11.0 mM and CaCl2·6H2O 2.54 mM), which was kept at 35–36°C and bubbled with 95% O2 and 5% CO2. […] Contractions were monitored by a computer using a data recording and analysis system as described previously (Ross et al., 2001). After placement in an organ bath, each tissue was subjected to a stimulation‐free period of 10 min and then stimulated for 10 min. Tissues were then subjected to alternate periods of stimulation (5 min) and rest (10 min) until consistent twitch amplitudes were obtained. This equilibration procedure was followed by a stimulation‐free period of 25 min. Tissues were then stimulated for 5 min after which the first agonist addition was made and stimulation continued until the end of the experiment.

A short description of series [4]: Plasma, brain and spinal cord levels in ABH mice with spastic EAE. Type of series: in vivo, mouse. The following applies: after 5 mg·kg^−1 p.o. VSN16R, ABH mice with spastic EAE. As for the experimental part:
The stability of compounds when subjected to hepatic and plasma degradation was assessed in vitro by Inpharmatica, Cambridge, UK. Compounds (1 μM) were incubated with either pooled mouse liver microsomes (0.1 mg protein mL^−1) or pooled mouse plasma at 37°C for 0, 5, 10, 20 and 40 min before termination with acetonitrile containing warfarin as an analytical internal standard. Samples were centrifuged, and the resultant supernatant analysed for parent compound. The mass responses at baseline were taken as the 100% reference values against which the disappearance of the compound was measured. The natural log of the % remaining values was used to generate linear plots of disappearance of the compounds. Half‐life values were calculated from the slope of these plots. Hepatocyte metabolism was assessed by Cyprotex, Macclesfield, and 10 μM VSN16R was incubated with primary mouse, rat, monkey (Macaque) and human hepatocytes for 1 h, and the presence of metabolites was assessed using liquid […] mass spectroscopy. The stability of VSN16R was assessed in vivo by Inpharmatica, Cyprotex and Charles Rivers, Cambridge. Blood (plasma) samples were obtained prior to and 5 min to 24 h after drug administration of 2–5 mg·kg^−1 i.v. or 5 mg·kg^−1 p.o. VSN16R into outbred mice and rats (n = 3 per time point). In addition, plasma, brain and spinal cord samples were obtained from ABH with spastic EAE. Immediately after blood collection, the brain and spinal cord were removed and then stored at −20°C prior to assay. Tissue samples were weighed, homogenized and centrifuged, and the lysates generated. Brain lysates and plasma were assayed by LC–MS methods by Inpharmatica/Charles Rivers, Cambridge, UK. This was also performed using a Waters Xevo TQ or API4000, AB Sciex mass spectrometer using spiked samples as standards. PK Solutions Software (Summit Research Services, Montrose, CO, USA), AB Sciex Analyst software combined with Thermo Fisher Scientific Watson LIMS processing and reporting software or WinNonLin pharmacokinetic or PK solutions 2.0 software (Summit Research Services, Montrose CO, USA) were used to produce PK parameters. Data are expressed as mean ± SEM. The detection limit of VSN16R was 2 ng·mL^−1 in plasma and brain and 14 ng·mL^−1 in spinal cords. The detection limit of VSN22R was 2 ng·mL^−1 in plasma and 0.1 ng·mL^−1 for VSN44R in plasma. Pharmacokinetics in toxicological samples in rats (n = 6 per group), dogs (n = 6 per group) and humans (n = 6 per group) were performed by Charles Rivers (Edinburgh, UK).

The next series addresses T1, BKCa channel (Homo sapiens, UniProt Q12791+Q86W47).
T1 construct: host or cells: EA.hy926 endothelial cells
Nature of the series: Single‐channel inside‐out patch clamp, EA.hy926 cells. Type of series: cell-based. The following applies: 3 μM, inner surface of membrane, 40 mV, 0.3 μM free Ca^2+. As for the experimental part:
The human EA.hy926 endothelial cells (ATCC, Manassas, USA) were grown in DMEM containing 10% FCS and 1% HAT (5 mM hypoxanthine, 20 μM aminopterin and 0.8 mM thymidine) and were maintained in an incubator at 37°C in 5% CO2 atmosphere (Bondarenko et al., 2013). Human HNC‐2 neuronal cells were obtained from ATCC. For experiments, cells were plated on glass coverslips. Single‐channel recordings were obtained from excised inside‐out membrane patches in symmetrical solutions using the patch‐clamp technique. All patch‐clamp experiments were performed at room temperature with the use of a water hydraulic micromanipulator (WR‐6, Narishige, Japan). […] The pipettes were filled with 140 mM KCl, 10 mM HEPES, 1 mM MgCl2, 5 mM EGTA and […] CaCl2 buffered to pH 7.2 by adding KOH. Cells were super‐perfused with a bath solution containing 140 mM NaCl, 5 mM KCl, 1.2 mM MgCl2, 10 mM HEPES, 10 mM glucose and 2.4 mM CaCl2. Following gigaseal formation, bath solution was switched to the following: 140 mM KCl, 10 mM HEPES, 1 mM MgCl2, 5 mM EGTA and a designated free Ca^2+ concentration, which was adjusted by adding different amounts of CaCl2 buffered to pH 7.2. (Bondarenko et al., 2011; Bondarenko et al., 2013). Single‐channel activity was expressed as NPo, where N represents the number of functional ion channels in the membrane patch and Po represents the open channel probability determined from idealized traces (Bondarenko et al., 2011). NPo was obtained from ≥20 s of continuous recording under each experimental condition. The effect of VSN16R was estimated after 3 min of continuous exposure to VSN16R‐containing solution. Data were analysed by ANOVA, and statistical significance was evaluated using Scheffés post hoc test of the Prism 5 software for Windows (GraphPad Software).

Where [5] appears, read: i.p., 40 mg·kg^−1 BMS‐204352, 20 mg·kg^−1 NS‐1619, 10 mg·kg^−1 NS‐11021.

This is an account of results in publication PMC5522996, “Big conductance calcium‐activated potassium channel openers control spasticity without sedation” (British Journal of Pharmacology, 2017).

T1 sequence (Q12791 whole entry): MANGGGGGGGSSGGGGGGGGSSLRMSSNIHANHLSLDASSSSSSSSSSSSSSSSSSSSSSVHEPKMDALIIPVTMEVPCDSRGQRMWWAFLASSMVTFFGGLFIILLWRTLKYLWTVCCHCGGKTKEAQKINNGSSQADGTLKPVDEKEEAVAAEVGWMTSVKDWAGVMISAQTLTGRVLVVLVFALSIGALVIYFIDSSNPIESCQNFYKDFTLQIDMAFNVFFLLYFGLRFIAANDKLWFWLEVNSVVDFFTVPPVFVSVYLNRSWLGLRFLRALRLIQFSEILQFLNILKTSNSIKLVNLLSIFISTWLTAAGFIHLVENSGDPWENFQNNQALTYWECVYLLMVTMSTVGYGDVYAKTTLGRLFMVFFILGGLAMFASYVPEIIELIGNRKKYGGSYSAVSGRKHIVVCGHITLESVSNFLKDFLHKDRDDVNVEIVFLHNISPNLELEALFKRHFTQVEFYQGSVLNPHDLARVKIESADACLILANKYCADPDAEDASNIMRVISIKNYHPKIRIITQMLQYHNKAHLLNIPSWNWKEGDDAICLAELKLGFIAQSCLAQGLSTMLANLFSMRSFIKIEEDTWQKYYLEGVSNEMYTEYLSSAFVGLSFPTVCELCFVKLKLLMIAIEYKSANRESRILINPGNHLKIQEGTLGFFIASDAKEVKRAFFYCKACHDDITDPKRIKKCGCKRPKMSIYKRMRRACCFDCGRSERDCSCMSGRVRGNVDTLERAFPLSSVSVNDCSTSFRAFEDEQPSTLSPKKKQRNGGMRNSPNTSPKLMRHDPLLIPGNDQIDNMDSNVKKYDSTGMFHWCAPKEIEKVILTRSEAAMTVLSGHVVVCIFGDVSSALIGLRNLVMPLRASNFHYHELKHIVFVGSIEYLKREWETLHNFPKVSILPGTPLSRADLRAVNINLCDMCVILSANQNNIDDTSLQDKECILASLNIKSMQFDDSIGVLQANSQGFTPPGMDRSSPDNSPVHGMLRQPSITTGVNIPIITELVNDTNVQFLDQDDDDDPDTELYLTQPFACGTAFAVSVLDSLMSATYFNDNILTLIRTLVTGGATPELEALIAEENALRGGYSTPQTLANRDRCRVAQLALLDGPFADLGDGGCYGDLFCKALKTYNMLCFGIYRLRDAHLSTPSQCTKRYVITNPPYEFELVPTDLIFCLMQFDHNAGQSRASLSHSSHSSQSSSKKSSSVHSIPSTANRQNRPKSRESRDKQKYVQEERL
T1 sequence (Q86W47 whole entry): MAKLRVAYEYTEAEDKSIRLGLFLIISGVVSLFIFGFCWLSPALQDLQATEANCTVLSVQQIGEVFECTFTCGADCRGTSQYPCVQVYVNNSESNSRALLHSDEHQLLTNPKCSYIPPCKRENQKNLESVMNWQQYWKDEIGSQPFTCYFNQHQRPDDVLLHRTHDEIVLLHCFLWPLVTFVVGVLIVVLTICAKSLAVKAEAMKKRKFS

As to charybdotoxin, in the series on rat mesenteric artery, the “Effect of the blocker on VSN16R vasorelaxation” value is listed as “significantly inhibited”.

As to “Apamin: KCa2.2/2.3 (KCNN2/KCNN3) channel antagonist (CNCKAPETALCARRCQQHG)”, in the series with rat mesenteric artery, the “Effect of the blocker on VSN16R vasorelaxation” value is “small inhibitory effect”.

On to `CC(C)(O)[C@H]1O[C@H]2CC[C@@]3(C)[C@@](O)(CC[C@H]4Cc5c([nH]c6ccccc56)[C@@]43C)C2=CC1=O` [paxilline, reference compound], for which the “Effect on baseline level of spasticity” value in series [1] (1 mg·kg^−1 i.p.) is given as “did not influence the baseline level of spasticity”. Moreover, the “Effect of pretreatment on the action of VSN16R” value in series [1] (1 mg·kg^−1 i.p. before 5 mg·kg^−1 p.o. VSN16R) was “completely inhibit the action of VSN16R”.

`CCCCCCC(C)(C)c1cc(O)c2c(c1)OC(C)(C)[C@@H]1CC=C(C(=O)O)C[C@@H]21` [CT3, 1′, 1′‐dimethylheptyl‐M8‐tetrahydrocannabinol‐11‐oic acid]: the Temperature loss was 2.3 ± 0.4 °C with ABH mice [2] (20 min, spastic animals) and 0.0 ± 0.1 °C with ABH mice [2] (healthy mice).

Consider `COc1ccc(Cl)cc1[C@]1(F)C(=O)Nc2cc(C(F)(F)F)ccc21` [BMS‐204352, reference compound], for which, in series [1] (setting [5]), the Inhibition of spasticity result is given as “significantly inhibit spasticity” and the Sedation result is given as “without causing sedation”.

For the compound `O=c1[nH]c2cc(C(F)(F)F)ccc2n1-c1cc(C(F)(F)F)ccc1O` [NS‐1619, reference compound], in series [1] (setting [5]), the Inhibition of spasticity entry is listed as “significantly inhibit spasticity” and the Sedation result was “without causing sedation”.

Regarding `NCC(CC(=O)O)c1ccc(Cl)cc1` (stereo not shown) [baclofen, reference compound], the “Sedation (hypomotility, hypothermia)” value with ABH mice [3] (5 mg·kg^−1 i.v.) is listed as “significant sedation”. The Inhibition of spasticity entry in series [1] (5 mg·kg^−1 i.v.) was “comparable inhibition of spasticity”. In series [1] (repeated 5 mg·kg^−1 p.o.), the “Inhibitory response on repeated dosing” value is on record as “inhibitory responses that diminished over time”.

One may read the EC50 as the concentration giving half of the maximal effect. Take `C[C@@H](NC(=O)c1cccc(/C=C\CCCC(=O)N(C)C)c1)C(=O)O` [VSN44R, (Z)‐(3‐(6‐(dimethylamino)‐6‐oxohex‐1‐en‐1‐yl)benzoyl)‐D‐alanine]: the EC50 in the series on mouse vas deferens amounted to 1 nM. For the same compound, in series [4], the “Plasma level of the named species” value amounted to 2.1 ± 0.3 ng/mL. Further, the “Single BKCa channel activity” value on BKCa channel is given as “facilitated single BKCa channel activity”. Besides, in series [1] (5 mg·kg^−1 i.v.), the Inhibition of spasticity entry is listed as “could inhibit the spasticity”.

`Cc1c(C(=O)c2cccc3ccccc23)c2cccc3c2n1[C@H](CN1CCOCC1)CO3` [R(+)WIN55‐212]: the “Hypomotility in open field” value with ABH mice [3] (1 mg·kg^−1 i.v., 30 min after administration) is given as “significant sedative effects”. Also, the Hypothermia result in the series on ABH mice [2] (1 mg·kg^−1 i.v., 20 min after administration) was “significant sedative effects”.

Consider `N#Cc1cc2[nH]c(=O)c(=O)[nH]c2cc1[N+](=O)[O-]` [CNQX, reference compound], for which the “Inhibitory response on repeated dosing” value in series [1] (repeated 25 mg·kg^−1 s.c.) is recorded as “inhibitory responses that diminished over time”.

Consider `FC(F)(F)c1cc(NC(=S)Nc2ccc(Br)cc2-c2nn[nH]n2)cc(C(F)(F)F)c1` [NS‐11021, reference compound], for which, in series [1] (setting [5]), the Inhibition of spasticity entry is listed as “significantly inhibit spasticity” and the Sedation entry is recorded as “without causing sedation”.
